Counter-ions that a name gives are not always drawn.
Assays:
[1] = target: human STING protein in THP1-Blue ISG cells (Homo sapiens, UniProt Q86WV6, G230A/H232R/R293Q/R71H); assay: In vitro cytokine induction, THP1-Blue ISG IRF-inducible SEAP reporter assay; settings: 24 hours incubation, OD at 620 nm
Procedure: In Vitro Cytokine Induction
Using Invivogen's QUANTI-Blue™ colorimetric enzyme assay and a suitable optical density (OD) reader the activity of SEAP can be detected and quantified.
Measurements of SEAP activity were performed in THP1-Blue ISG cells stably expressing the human STING protein and the IRF-inducible SEAP reporter construct. Cells were cultivated for expansion in RPM11640 medium with 10% fetal calf serum, 50 μg/ml Penicillin-Streptomycin, 100 μg/ml Zeocin, and 100 μg/ml Normocin in a 37°, 95% humidity and 5% CO2 incubator. Assay-ready cells were stored as frozen stocks In preparation for the assay, the cells thawed in Zeocin-/Normocin-free medium and were distributed into the assay plates with a density of 15000 cells/15 μL per well. Compounds were prepared by an 8 or 16 point serial dilution in 50% aqueous DMSO and a final dilution step into medium to ensure a final DMSO concentration of 0.5% in the assay. 5 μL of diluted compounds plus 5 μL medium were added to the plates, followed by a 24 hours incubation at 37° C.
At the day of the assay, 75 μl per well of Quanti-Blue reagent was added to all wells of the plate and the plate was incubated another 30 minutes at 37° C. The OD at 620 nm was measured on the EnVision reader (PerkinElmer).

[2] = target: Human STING (hSTING, residues 155-341, wild-type sequence) (Homo sapiens, UniProt Q86WV6, H232R); assay: Differential Scanning Fluorimetry (DSF), hSTING Tm shift; type: binding; settings: 100 uM test compound, 3 uM target protein; for hSTING Tm shift: Sodium Salt
Text: The dissociation curves were processed in Bio-Rad CFX Manager. • Peak type was set to “negative”.

[3] = Mouse PK, plasma concentration after intravenous administration; type: in vivo; settings: male C57BL/6NRj mouse, 10 μmol/Kg, mean of duplicate experiments
Procedure: The mouse PK of compounds of the invention was determined using the following method:
The compound was dissolved in a solution of physiological NaCl and administered intravenously to male C57BL/6NRj mouse at a dose of 10 μmol/Kg. A 20 μL blood sample was collected at 0.25, 0.5, 0.75, 1 and 2 h by taking ETDA as anticoagulant. Blood plasma was generated by centrifugation and stored at −20° C. The compound concentration was determined by LC-MS/MS.

Human STING (hSTING, residues 155-341, wild-type sequence), sequence (Q86WV6 155-341 H232R): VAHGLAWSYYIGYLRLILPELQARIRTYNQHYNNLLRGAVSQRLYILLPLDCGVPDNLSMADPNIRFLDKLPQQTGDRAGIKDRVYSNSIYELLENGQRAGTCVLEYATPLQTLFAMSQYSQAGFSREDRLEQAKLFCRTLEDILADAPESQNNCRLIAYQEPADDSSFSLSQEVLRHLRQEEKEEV
human STING protein in THP1-Blue ISG cells, sequence (Q86WV6 whole entry R71H/G230A/H232R/R293Q, the tested form may be a part): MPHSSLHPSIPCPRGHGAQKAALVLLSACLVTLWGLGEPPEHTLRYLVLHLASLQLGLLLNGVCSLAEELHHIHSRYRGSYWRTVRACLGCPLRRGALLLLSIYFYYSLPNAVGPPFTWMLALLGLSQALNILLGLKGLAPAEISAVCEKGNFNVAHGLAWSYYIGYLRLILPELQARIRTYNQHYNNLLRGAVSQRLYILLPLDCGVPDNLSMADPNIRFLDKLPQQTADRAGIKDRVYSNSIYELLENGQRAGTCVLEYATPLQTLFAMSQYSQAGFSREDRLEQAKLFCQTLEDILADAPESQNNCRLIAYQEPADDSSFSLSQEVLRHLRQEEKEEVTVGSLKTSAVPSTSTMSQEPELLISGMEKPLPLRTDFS

| Structure (SMILES) | EC50 [1] [µM] | ΔTm at 100 µM [2] [°C] | hSTING Tm shift [2] [°C] | compound concentration in plasma, T = 0.25 h [3] [nM] | compound concentration in plasma, T = 0.5 h [3] [nM] | compound concentration in plasma, T = 0.75 h [3] [nM] | compound concentration in plasma, T = 1 h [3] [nM] | compound concentration in plasma, T = 2 h [3] [nM] |
| --- | --- | --- | --- | --- | --- | --- | --- | --- |
| Nc1ncnc2c1ncn2[C@@H]1O[C@]23CO[C@@H]1[C@@H]2OP(=O)(S)OC[C@H]1O[C@@H](n2cnc4c(=O)[nH]ncc42)[C@H](OP(=O)(S)OC3)[C@@H]1O (single isomer, unassigned) [Example 3.1, Cyclic (imidazopyridazinon-β-D-ribofuranoside-(2′→5′)-phosphorothioate-LNA-adenine-(3′→5′)-phosphorothioate), Sodium Salt] | 0.17 |  | 17.0 | 2710 | 1280 | 595 | 260 | 111 |
| O=c1[nH]ncc2c1ncn2[C@@H]1O[C@@H]2COP(=O)(S)O[C@H]3[C@@H](O)[C@H](n4cnc5cncnc54)O[C@@H]3COP(=O)(S)O[C@@H]1[C@@H]2O (single isomer, unassigned) [Example 4.2, Cyclic (imidazopyridazinon-β-D-ribofuranoside-(2′→5′)-phosphorothioate-purine-β-D ribofuranoside-(3′→5′)-phosphorothioate), Sodium Salt] | 6.2 |  | 9.0 |  |  |  |  |  |
| Nc1ncnc2c1ncn2[C@@H]1O[C@]23CO[C@@H]1[C@@H]2OP(=O)(S)OC[C@H]1O[C@@H](n2cnc4c(=O)[nH]ncc42)[C@H](OP(=O)(S)OC3)[C@@H]1O (single isomer, unassigned) [Example 3.2, Cyclic (imidazopyridazinon-β-D-ribofuranoside-(2′→5′)-phosphorothioate-LNA-adenine-(3′→5′)-phosphorothioate), Sodium Salt] | 8.5 | 9 |  |  |  |  |  |  |

Second part, the compound after the results:

| EC50 [1] [µM] | ΔTm at 100 µM [2] [°C] | hSTING Tm shift [2] [°C] | compound concentration in plasma, T = 0.25 h [3] [nM] | compound concentration in plasma, T = 0.5 h [3] [nM] | compound concentration in plasma, T = 0.75 h [3] [nM] | compound concentration in plasma, T = 1 h [3] [nM] | compound concentration in plasma, T = 2 h [3] [nM] | Structure (SMILES) |
| --- | --- | --- | --- | --- | --- | --- | --- | --- |
| 0.19 | 13.9 |  |  |  |  |  |  | O=c1[nH]ncc2c1ncn2[C@@H]1O[C@@H]2COP(=O)(S)O[C@H]3[C@@H](O)[C@H](n4cnc5cncnc54)O[C@@H]3COP(=O)(S)O[C@@H]1[C@@H]2O (single isomer, unassigned) [Example 4.1, Cyclic (imidazopyridazinon-β-D-ribofuranoside-(2′→5′)-phosphorothioate-purine-β-D ribofuranoside-(3′→5′)-phosphorothioate), Sodium Salt] |
|  |  |  | 3080 | 1200 | 550 | 249 | 120 | Nc1ncnc2c1ncn2[C@@H]1O[C@@H]2COP(=O)(S)O[C@H]3C(n4cnc5c(=O)[nH]ncc54)O[C@H](COP(=O)(S)O[C@H]2[C@H]1O)[C@H]3O (single isomer, unassigned) [Example 1.1, Cyclic (imidazopyridazinon-β-D-ribofuranoside-(2′→5′)-phosphorothioate-adenosine-(3′→5′)-phosphorothioate)] |
|  |  |  | 1970 | 699 | 401 | 241 | 78 | Nc1ncnc2c1ncn2[C@@H]1O[C@@H]2COP(=O)(S)O[C@@H]3[C@H](O)[C@@H](COP(=O)(S)O[C@H]2[C@H]1F)O[C@H]3n1cnc2c(=O)[nH]ncc21 (single isomer, unassigned) [Example 2.1, Cyclic (imidazopyridazinon-β-D-ribofuranoside-(2′→5′)-phosphorothioate-2′-F-2′-deoxyadenosine-(3′→5′)-phosphorothioate] |

Source: US10537590B2, “Cyclic dinucleotide compounds” (BOEHRINGER INGELHEIM INTERNATIONAL GMBH, priority 2016, dated 2020)
